Assay results taken from US20230270721A1, “INHIBITION OF BAX-MEDIATED CELL DEATH BY ELTROMBOPAG” (Albert Einstein College of Medicine, priority 2020, published 2023).

Columns and labels:
[1] = target: T1, BAX (Homo sapiens, UniProt Q07812); assay: Competitive fluorescence polarization binding assay (FPA), BAX / FITC-BIM-SAHB; details: FITC-BIM-SAHB 25 nM
T1 construct: Human full-length (1-192) wild-type BAX (Q07812); made in house; host or cells: E. coli BL21 (DE3) CodonPlus (DE3)-RIPL
Description: Fluorescence polarization assays (FPA) were performed as previously described (Gavathiotis, E., et al. Nat Chem Biol 8, 639-645 (2012)). Direct binding isotherms of BIM-SAHB were measured by incubated FITC-BIM-SAHB (25 nM) with serial dilutions of full-length BAX alone or in the presence of 0.5 or 1 µM EO. Competition binding assays were performed by titrating ED into BAX (150 nM) and FITC-BIM-SAHB (25 nM). Measurements were taken at 10-minute intervals over 60 minutes on a TECAN F200 PRO microplate reader. Reported curves represent 10-minute time point. KD values and IC50 were determined using GraphPad Prism nonlinear fit four-parameter agonist or antagonist versus response with restraints for 100% and 0% bound calculated by the mP of saturated BAX + FITC-BIM-SAHB and FITC-BIM-SAHB alone.
To test this hypothesis, a competitive fluorescence polarization assay (FPA) (Gavathiotis, E., et al. Nat Chem Biol 8, 639-645 (2012)) based on the interaction between BAX and fluorescently-labeled stapled BIM-BH3 peptide (FITC-BIM-SAHB) was used (Gavathiotis, E., et al. Nature 455, 1076-1081 (2008)). […] The IC50 and KD are consistent with a competitive binding mechanism of EO displacing FITC-BIM-SAHB from the N-terminal trigger site of BAX.

[2] = system: megakaryocyte precursors and progenitor cells; details: differentiation of megakaryocyte precursors and progenitor cells; cited from earlier work
[3] = system: BAX KO (BAX-/-) MEFs; assay: Cytochrome c release assay (ELISA), BAX KO MEFs; format: cell-based, mouse; details: BIM-BH3 peptide
Description: BAX^-/^- or BAK^-/^- mouse embryonic fibroblasts were maintained in DMEM (Life Technologies) supplemented with 10% FBS, 100 U/mL penicillin/streptomycin, 2 mM I-glutamine, and 0.1 mM MEM nonessential amino acids. MEFs (5×10^4 cells/well) were seeded in a 96 well clear u-bottom plate for 18-24 hr. Media was removed and replaced with media lacking FBS, and cells were treated with varying doses of EO for 2 hours at 37° C. […] Cytochrome c release was determined by decanting 50 µL of the supernatant and analyzing with the rat/mouse cytochrome c quantikine ELISA kit (R&D Systems, MCTO) according to the recommended protocol. […]
It is important to note that THPO-receptor agonist activity of EO is highly specific to the human and chimpanzee THPO-receptors, making mouse cell lines ideal for studying EO modulation of BAX-dependent activity independent of THPO-mediated effects (Erickson-Miller, C. L. et al. Stem Cells 27, 424-430 (2009)). First, mitochondrial cytochrome c release, a hallmark of BAX activation and BAX-dependent apoptosis, was evaluated. […] Next, mitochondrial translocation of cytosolic BAX upon treatment with either BIM BH3 or staurosporine (STS) in BAK KO MEFs was evaluated.

[4] = system: 3T3 cells; assay: Caspase 3/7 activation assay, ABT-263 + S63845; format: cell-based, murine; details: 1 µM ABT-263 and 1 µM S63845, 4 hr
Description: 3T3 cells were maintained in media identical to that of MEFs. 3T3 cells were seeded (1×10^4 cells/well) in 96-well opaque plates for 18-24 hr. The media was removed and replaced with media lacking FBS, and cells were treated with EO as a 10X stock in H2O at the indicated doses for 2 hr before addition of 10% FBS. Cells were then treated with 1 µM each of ABT-263 and S63845. Caspase 3/7 activation was measured at 4 hr by addition of the Caspase-Glo 3/7 chemiluminescence reagent in accordance with the manufacturer’s protocol (Promega). Luminescence was detected by an F200 PRO microplate reader (TECAN). Percentage caspase activation was normalized to ABT-263 + S63845 alone (100%) and untreated cells (0%). Viability assays were performed at 24 hr by addition of CellTiter-Glo according to the manufacturer’s protocol (Promega). Luminescence was detected by an F200 PRO microplate reader (TECAN). Percentage viability was normalized to untreated cells (100%).
Next, whether EO is capable of rescuing cell death in cells expressing both BAX and BAK was determined. 3T3 cells, a murine fibroblast cell line, were treated with a combination of BH3-mimetics navitoclax (ABT-263) and S63845, which only in combination cause significant cytotoxicity in fibroblast cells.

[5] = system: human IPSC cardiomyocytes; assay: Apoptosis detection (RealTime Glo) in doxorubicin-treated cardiomyocytes; format: cell-based; details: 5 µM Doxorubicin, 10 µM EO

T1 sequence (Q07812 whole entry): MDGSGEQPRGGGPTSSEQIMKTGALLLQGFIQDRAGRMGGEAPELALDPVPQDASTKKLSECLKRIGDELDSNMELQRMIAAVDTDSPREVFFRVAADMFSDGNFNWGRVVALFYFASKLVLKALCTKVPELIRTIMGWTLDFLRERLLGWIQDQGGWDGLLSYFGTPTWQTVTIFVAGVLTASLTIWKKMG

## CC1=NN(c2ccc(C)c(C)c2)C(=O)/C1=N\Nc1cccc(-c2cccc(C(=O)O)c2)c1O [EO, eltrombopag]
[1]; BAX 150 nM, 10-minute time point, read-out: half-maximal inhibition IC50, competition of FITC-BIM-SAHB
  IC50: 207 nM
[1]; direct binding titration of BAX, 0.5 or 1 µM EO
  affinity of BAX for FITC-BIM-SAHB in the presence of EO: decreased affinity
[2]
  time for stimulation of platelet production to begin: 5 days
[3]
  BIM-BH3 induced release of cytochrome c: no such effect
[4]
  apoptosis mediated by caspase 3/7 activity: significant reduction of apoptosis
[5]
  apoptosis (cell death) induced by doxorubicin: capable of inhibiting apoptosis
